Here are results for six molecules from patent publication US5905090A, “Analogues of the active metabolite of leflunomide” (Italfarmaco S.p.A., priority 1998, dated 1999).

The subject of assay [1] is CD2. Nature of the assay: Inhibition of lymphocyte activation antigens expression: CD2 (OKT3-stimulated PBMC, flow cytometry). The following applies: human PBMC, 24 hr. The class given is cell-based. How it is done:
(§1) Inhibition of lymphocyte activation antigens expression.
(§2) Human peripheral blood mononuclear cells (PBMC) from healthy donors were separated by Ficoll-Hypaque density-gradient centrifugation. The cells recovered were suspended in culture medium (RPMI 1640 supplemented with 10% foetal bovine serum, 2 mM L-glutamine, 100 IU/ml penicillin and 100 μg/ml streptomycin).
(§3) PBMC, suspended at a density of 10^6 cells/ml in culture medium, were incubated in 24-well plates (Costar, Cambridge, Mass.) with the tested compounds and, 30 min later, stimulated with optimal concentration of the monoclonal antibodies OKT3 (Ortho Diagnostic Inc., Raritan, N.J.) for 24 hr at 37° C. and under 5% CO2. At the end of incubation, cells were washed twice with PBS containing 2% human serum (Irvine Scientific, Irvine, Calif.) and then incubated with fluorescein isothiocyanate (FITC)-conjugated monoclonal antibodies (Mab) for 30 min on ice. Cells were then washed as above and fluorescence analysis was performed by flow-cytometry on a FACScan (Becton-Dickinson, Mountain View, Calif.). The Mabs used were anti-Leu5b (CD2), anti-Interleukin-2 receptor (CD25) and anti transferrin receptor (CD71). Fluorescence background was determined by incubating the cells with FITC-conjugated mouse IgG of the relevant isotype. Forward- and right-angle scatter were set in order to include lymphocytes and lymphoblasts. The results, expressed as percentage of inhibition of mean fluorescence (MF), were calculated as follows: [formula]

Assay [2] has as its system murine splenocytes (BALB/c and DBA/2 mice). Kind of assay: Mixed lymphocyte reaction (MLR), bi-directional, [3H]-thymidine proliferation. The class given is cell-based, murine (BALB/c and DBA/2 mice). Particulars: Mus musculus, Splenocyte, 96 hours. The procedure:
Mixed lymphocyte reaction (MLR).
Bi-directional MLR was carried out using murine cells. Splenocytes were prepared from BALB/c and DBA/2 mice (18-20 g) Charles River, Calco, Italy). Briefly, single cell suspensions were isolated from spleen by Ficoll-Hypaque (biochrom, Berlin, Germany) density gradient centrifugation. 5×10^4 splenocytes from each preparation was cultured for 96 hours in triplicate in 96-well round-bottom plates (Nunc, Roskilde, Denmark), in the absence or presence of serial dilutions of the tested compounds. All compounds were dissolved in dimethyl sulfoxide (DMSO) to a final 20 mM concentration and then diluted into the culture medium used for the cell assay. To take into account a possible interference from DMSO, each experiment included a control in which the DMSO concentration was made equal to those of compound-treated cultures. Culture medium used was RPMI 1640 (Biochrom, Berlin, Germany), supplemented with 5% foetal bovine serum (Hyclone Laboratories Inc., Logan, Utah), 50 μm 2-mercaptoethanol, 2 mM L-glutamine, 0.1 mM non-essential amino acids, 1 mM sodium pyruvate, 100 IU/ml penicillin, and 100 μg/ml streptomycin. During the last 18 hours of culture, cells were pulsed with 1 μCi of [^3 H]-thymidine (Amersham, UK) and then harvested onto glass fiber filters by means of a cell harvester. Radioacivity, proportional to proliferation, was measured with a β-counter.

Assay [3] concerns CD25. Nature of the assay: Inhibition of lymphocyte activation antigens expression: CD25 (OKT3-stimulated PBMC, flow cytometry). It is filed as cell-based. Particulars: human PBMC, 24 hr. How it is done:
as §1, §2, §3
A general note: A flow cytometer gives signals particle by particle.

The subject of assay [4] is CD71. Kind of assay: Inhibition of lymphocyte activation antigens expression: CD71 (OKT3-stimulated PBMC, flow cytometry). Particulars: human PBMC, 24 hr. The class given is cell-based. The procedure: as §1, §2, §3
The subject of assay [5] is adjuvant arthritis (complete Freund's adjuvant). Kind of assay: Adjuvant arthritis in the rat. It is filed as in vivo, rat (male Lewis). Particulars: p.o. daily.
In assay [6] the test system is antigen-induced paw edema (KLH-immunised BALB/c mice). Kind of assay: Antigen-induced paw edema in the mouse. The class given is in vivo, mouse (female BALB/c). Particulars: daily day 0 to day 13, 8 hours after challenge. The procedure:
Antigen-induced paw edema in the mouse.
Groups of 4-8 female BALB/c mice (20-22 g; Charles River, Calco, Italy) were immunised at days 0 and 7 with two s.c. injections, of keyhole limpet hemocyanin (KLH, 100 μg/mouse; Sigma Chemicals, S. Louis, Mo.) emulsified in 0.2 ml complete Freund's adjuvant (CFA, Sigma Chemicals, S. Louis, Mo.). Non-immunised mice (Control) were treated with CFA alone. On day 14, immunised mice were challenged in the hind footpad with 20 μg KLH suspended in physiological solution. Eight hours after antigen challenge the edema was quantified measuring the dorsal-ventral thickness of the footpad with a scientific micrometer (Borletti, Italy). To evaluate their immunosuppressive activity, the compounds were administered daily from day 0 to day 13.

Structures are written as SMILES. Where only a bound is given, the exact number is not on record here.

In general, IC50 refers to the concentration that inhibits the measured activity by half. Regarding `CC(O)=C(C(=O)Nc1ccc(C(F)(F)F)cc1)C(=O)Nc1ccc(C(F)(F)F)cc1` [Example 1, N-(4-trifluoromethylphenyl)-2-(4-trifluoromethylphenylcarbamoyl)-3-hydroxybut-2-enamide], the IC50 amounted to 15.3 µM in assay [1], 11.9 ± 0.1 µM in assay [2], 18.4 µM in assay [3] and 18.8 µM in assay [4].

On to `O=C(Nc1ccc(C(F)(F)F)cc1)C1=C(O)COC1=O` [Example 2, N-(4-trifluoromethylphenyl)-4-hydroxy-2-oxo-(5H)-furan-3-carboxamide], for which the IC50 in assay [1] was determined as 13.8 µM; in assay [2], 3.4 ± 1.1 µM; in assay [3], 14.8 µM; in assay [4] it was 66.5 µM.

Regarding `O=C1CCC(O)=C1C(=O)Nc1ccc(C(F)(F)F)cc1` [Example 3], the IC50 was found to be 2.9 µM in assay [1], 1.25 ± 0.2 µM in assay [2], 2.9 µM in assay [3] and 11 µM in assay [4]. Further, the “Inhibition (%) of arthritis score” value in assay [5] (Day 14) came out at 42%; in assay [5] (Day 17), 46%; in assay [5] (Day 21), 19%. Moreover, the Arthritis score stood at 2.1 ± 0.1 in assay [5] (Day 14, vehicle score 3.6 ± 0.5); 2.6 ± 0.1 in assay [5] (Day 17, vehicle score 4.8 ± 0.4); 3.9 ± 0.2 in assay [5] (Day 21, vehicle score 4.8 ± 0.6).

Take `O=C1CCCC(O)=C1C(=O)Nc1ccc(C(F)(F)F)cc1` [Example 4]: the IC50 in assay [1] was 95.4 µM; in assay [2] it was 45.9 ± 29.5 µM; in assay [3], more than 100 µM; in assay [4], more than 100 µM.

As for `O=C(Nc1ccc(C(F)(F)F)cc1)c1ccccc1O` [Example 5, N-(4-trifluoromethylphenyl)-2-hydroxy-benzamide], the IC50 was determined as 3 µM in assay [1], 1.65 ± 0.1 µM in assay [2], 2.4 µM in assay [3] and 4.4 µM in assay [4]. The “Percentage of inhibition of edema formation” value in assay [6] (10 mg/Kg i.p.) was determined as 37%.

Take `Cc1oncc1C(=O)Nc1ccc(C(F)(F)F)cc1` [Leflunomide, 5-methyl-N-(4-trifluoromethylphenyl)isossazole-4-carboxamide]: the IC50 was 126 µM in assay [1], 9.6 ± 3.1 µM in assay [2], 130 µM in assay [3] and more than 100 µM in assay [4]. Besides, the “Percentage of inhibition of edema formation” value in assay [6] (10 mg/Kg p.o.) came out at 43%.
